Results on two molecules are retold here after US7514432B2, “Compounds and methods of treating cell proliferative diseases, retinopathies and arthritis” (Exonhit Therapeutics SA, priority 2003, dated 2009).

Data set [1] relates to intersegmental vessels of zebrafish embryos. Description: In vivo zebrafish angiogenesis assay. The conditions noted are these: embryos 20 hpf, incubated 28 hours; for max inhibition of intersegmental vessels formation: 1% DMSO. The method, then: FIG. 6: In vivo zebrafish angiogenesis assay. 20 Hours post fertilization (hpf) embryos Were incubated with compounds and 1% DMSO for 28 hours. Vessels were stained with NBT/BCIP and morphometric analyses were done using the Adobe Photoshop software. For each condition, 10 embryos were analyzed and results were expressed as means±SEM. (A) dose response curves. (B) table presenting the 50% and max inhibition of intersegmental vessels formation together with the percentage of dead embryos (see material and methods).
In vivo zebrafish angiogenesis model: This assay is a viable and validated whole animal model for screening small molecules that affect blood vessel formation (Serbedzija et al, Angiogenesis, 1999). The study was subcontracted to Phylonix Pharmaceutical, Cambridge, Mass., USA. • Drug treatment: Intersegmental vessels (ISVs) in zebrafish are well accepted as angiogenic vessels, and they are easily observed using microscopy. By 20 hpf stage, the major vasculogenic vessels (dorsal aorta and caudal vein) have developed. By 48 hours post fertilization (hpf), ISVs have formed by sprouting from the dorsal aorta and caudal vein. Therefore, 20 hpf was used as the starting point and 48 hpf as the end point for drug treatment. Zebrafish embryos staged at 20 hpf were incubated with compound solution at 28° C. for 28 hours in 6-well plates, 20 embryos per well. Embryos treated with 1% DMSO and 5 μM Flavopiridol were used as negative and positive controls, respectively. • Microscopy: All light microscopy studies were performed using a ZEISS Stemi 2000-C stereomicroscope (Zeiss), equipped with a digital spot camera (Diagnostic Instruments Inc.). Images were further processed and analyzed using Adobe Photoshop 7.0 (Adobe). • Whole mount EAP staining: Embryos were fixed in 4% PFA for 2 hours at room temperature, and dehydrated in 100% ethanol following standard procedures. Embryos were then rehydrated, blocked, and stained with NBT/BCIP. After washing, embryos were examined by microscopy. • Quantitation of anti-angiogenic effects: To quantitate anti-angiogenic effects, 5 well developed trunk ISVs located around the anal pore were selected and morphometric analysis [area (pixel)× signal intensity] was performed using Adobe Photoshop. For each condition, 10 embryos were assessed and the mean value of 10 images was calculated using EXCEL software program (Microsoft Corporation). To calculate the inhibitory effect, the mean value of signal (S) in 5 ISVs in drug treated embryos was divided by mean value of S in DMSO control embryos, and calculated as % inhibition using the following formula: […]

Data set [2] concerns REF cells. As to the kind of experiment: Wound healing assay (time-lapse microscopy). The conditions noted are these: time lapse 8 hours. Format: cell-based. The method, then:
FIG. 4: Migration assays. (A) Wound healing assay in REF cells. 7.6 10^4 cells were plated on coverslips 48 hours before the experiment. The cells were pre-treated for 30 min. with the compounds, and then a scrape was done using a pipette tip. The scraped coverslips in treatment medium were put under a thermostated microscope coupled to a video camera. Movies were analyzed as described in material and methods, and velocity and total distance covered by the cells were evaluated. Bar graphs represent the mean±SEM of 2 to 4 experiments. (B) Boyden chamber migration assay in HMEC1, NIH3T3 and MDA-MB-231 cells. […] After labeling, cells were washed with HBSS and fluorescence was read in a fluorescence plate reader. Fluorescence values were normalized against the fluorescence obtained for the 1% DMSO control. […]
This assay has been described by Nobes & Hall (J. Cell Biol., 1999). • Preparation of REF cells: REF cells are prepared from 15-18 E14 embryos. […] Only the torso is kept, sliced into small squares, washed, treated with trypsin-EDTA for 20 min. at 37° C., resuspended in medium, counted and plated. […] Microscope images were collected every 5 minutes and recorded using the OpenLab software. When the assay is terminated (after 4 to 24 hours), pictures and movies are analyzed using the Metamorphe software. […] The position of each point was recorded. […]

In data set [3] the test system is REF cells. As to the kind of experiment: Lamellipodia/ruffles formation after wounding. Format: cell-based. The method, then:
This assay has been described by Nobes & Hall (J. Cell Biol., 1999). • Preparation of REF cells: REF cells are prepared from 15-18 E14 embryos. Briefly, the head, tail and viscerae are removed from the embryo. Only the torso is kept, sliced into small squares, washed, treated with trypsin-EDTA for 20 min. at 37° C., resuspended in medium, counted and plated. After 24 h, the cells are trypsinized and frozen in cryovials. 48 h before the wound healing assay, the cells are plated on coverslips. The day of the experiment, the cells are treated with the test compounds or DMSO alone. After 30 min., a scrape is done in the center of the coverslip using a small pipette tip. The cells are washed and fresh medium containing the compound or the DMSO is added. • Time-Lapse microscopy: The dishes containing the scraped coverslips and the treatment medium, sealed with parafilm is put under a thermostated microscope (37° C.) coupled to a video camera and a computer. Microscope images were collected every 5 minutes and recorded using the OpenLab software. When the assay is terminated (after 4 to 24 hours), pictures and movies are analyzed using the Metamorphe software. The pictures were calibrated (pixel converted to μm), and the velocity and total distance covered were calculated after tracking 7 to 10 single cells on the movies. […] The position of each point was recorded. […]

As to `Cl.Cl.O=c1cc(CN2CCOCC2)occ1OCCCCCSc1ccnc2cc(C(F)(F)F)ccc12` [EHT 1864, 5-(5-(7-(Trifluoromethyl)quinolin-4-ylthio)pentyloxy)-2-(morpholinomethyl)-4H-pyran-4-one dihydrochloride], in data set [1], the “anti-angiogenic activity in the zebrafish embryo” value was “dose-dependent anti-angiogenic activity”; the “toxicity in zebrafish embryos” value is “much less toxic than reference compounds Flavopiridol and SU-5416”; the “max inhibition of intersegmental vessels formation” value was determined as 77%. Besides, in the data set on REF cells [2] (30 μM), the “decrease of migration of REF cells (velocity and total distance covered)” value is recorded as “about 48%”. In addition, the “lamellipodia/ruffles formation after wounding” value in the data set on REF cells [3] is “dose-dependent inhibition of lamellipodia/ruffles formation”.
As for `CN1CCN(Cc2cc(=O)c(OCCCCCSc3ccnc4cc(C(F)(F)F)ccc34)co2)CC1.Cl.Cl.Cl` [EHT 9241, 5-(5-(7-(Trifluoromethyl)quinolin-4-ylthio)pentyloxy)-2-((4-methylpiperazin-1-yl)methyl)-4H-pyran-4-one trihydrochloride], the “max inhibition of intersegmental vessels formation” value in data set [1] is 40%. The “decrease of migration of REF cells (velocity and total distance covered)” value with REF cells [2] (10 μM) stood at 36%. The “lamellipodia/ruffles formation after wounding” value in the data set on REF cells [3] was “dose-dependent inhibition of lamellipodia/ruffles formation”.
